Data reported in publication PMC10578352, “Identification of a Protein Arginine Methyltransferase 7 (PRMT7)/Protein Arginine Methyltransferase 9 (PRMT9) Inhibitor” (Journal of Medicinal Chemistry, 2023).

What was measured:
Assay type in all cases: biochemical
ASH1L/KMT2H = target: T1, ASH1L/KMT2H (Homo sapiens, UniProt Q9NR48); experiment: HotSpot KMT activity assay, ASH1L; details: read-out: % ASH1L residual activity
T1 construct: the human recombinant ASH1L (residues 2046–2330, with an N-terminal His-tag); His (N); purchased Reaction Biology Corporation
Source text: (§1) ; MW = 35.4 kDa; Genbank Accession # NM_018489), or the human recombinant EZH2-containing five-member polycomb repressive complex 2 (including EZH2 residues 2–746, AEBP2 2–517, EED 2–441, RbAp48 2–425, SUZ12 2–739; all full-length; with N-terminal Flag-tag on EED and N-terminal His-tag on all others; MW = 333.8 kDa; Genbank Accession # NM_001203247, NM_001114176, NM_003797, NM_005610, NM_015355), or the human recombinant G9a (residues 913–1193, C-terminus; with an N-terminal His-tag; MW = 34.6 kDa; Genbank Accession # NM_006709.3), or the human recombinant MLL1 complex (including MLL1 residues 3745–3969, C-terminus, WDR5 22–334, C-terminus, RbBP5 1–538, C-terminus, ASH2L 2–534, C-terminus, DPY-30 1–99, C-terminus; N-terminal His-tag on all subunits; MW = 212.0 kDa; Genbank Accession # NM_005933, NM_017588, NM_005057, NM_001105214, NM_0325742), or the human recombinant SET7/9 (residues 2–366, C-terminus; with a N-terminal GST-tag and a C-terminal His-tag; MW = 68.5 kDa; Genbank Accession # NM_030648), or the human recombinant SMYD3 (residues 2–428, C-terminus; C-terminal His-tag; MW = 50.1 kDa; Genbank Accession # NM_001167740), or the human recombinant SUV39H2 (residues 46–410, C-terminus; N-terminal fusion protein with a C-terminal His-tag; MW = 98.8 kDa; GenBank Accession No. NM_001193424), or the human recombinant DOT1L (residues 1–416; N-terminal GST-tag; MW = 80.0 kDa; Genbank Accession # NM_032482) was added to a solution of the proper substrate (oligo nucleosomes for ASH1L, MLL1 complex, and DOT1L, final concentration 0.05 mg/mL; core histone for EZH2 complex and SET7/9, final concentration 0.05 mg/mL; histone H3 for SUV39H2, final concentration 5 μM; histone H3 1–21 for G9a, final concentration 2.5 μM) in freshly prepared reaction buffer (50 mM Tris-HCl (pH 8.5), 5 mM MgCl2, 50 mM NaCl, 1 mM DTT, 1 mM PMSF, 1% DMSO) and gently mixed. […] After incubation for 60 min at 30 °C, the reaction mixture was delivered to filter paper for detection (as assessed by scintillation). […] Values obtained for each compound are mean ± SD determined for two separate experiments.

G9a/KMT1C = target: T2, G9a/KMT1C (Homo sapiens, UniProt Q96KQ7); experiment: HotSpot KMT activity assay, G9a; details: read-out: % G9a residual activity
T2 construct: the human recombinant G9a (residues 913–1193, C-terminus); with an N-terminal His-tag; His (N); purchased Reaction Biology Corporation
Protocol: Then, ^3H-SAM (final concentration 1 μM) was delivered into the reaction mixture to initiate the reaction. After incubation for 60 min at 30 °C, the reaction mixture was delivered to filter paper for detection (as assessed by scintillation). […] No inhibitor control (DMSO) was considered as showing 100% enzyme activity. Data were analyzed using Excel and GraphPad Prism 6.0 software (GraphPad Software Inc., San Diego, CA). Values obtained for each compound are mean ± SD determined for two separate experiments.

[1] = target: T3, MLL1/KMT2A (5 component complex) (Homo sapiens, UniProt Q03164); experiment: HotSpot KMT activity assay, MLL1; details: read-out: % MLL1 residual activity
T3 construct: MLL1 residues 3745–3969, C-terminus; His (N); purchased Reaction Biology Corporation
Source text: as §1

SET7/9/KMT7 = target: T4, SET7/9/KMT7 (Homo sapiens, UniProt Q8WTS6); experiment: HotSpot KMT activity assay, SET7/9; details: read-out: % SET7/9 residual activity
T4 construct: the human recombinant SET7/9 (residues 2–366, C-terminus); GST (N); His (C); purchased Reaction Biology Corporation
T4 sequence (Q8WTS6 2-366): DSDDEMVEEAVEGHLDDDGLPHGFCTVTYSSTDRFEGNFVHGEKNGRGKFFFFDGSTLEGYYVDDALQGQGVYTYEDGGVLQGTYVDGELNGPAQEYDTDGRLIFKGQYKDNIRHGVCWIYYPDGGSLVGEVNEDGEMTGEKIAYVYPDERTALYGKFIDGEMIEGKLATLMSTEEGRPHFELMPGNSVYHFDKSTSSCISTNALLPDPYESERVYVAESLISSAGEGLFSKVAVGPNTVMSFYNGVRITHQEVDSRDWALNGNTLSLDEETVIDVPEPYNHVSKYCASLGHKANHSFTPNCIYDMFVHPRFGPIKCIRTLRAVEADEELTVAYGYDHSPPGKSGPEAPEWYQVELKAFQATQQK
Source text: as §1

SMYD3/KMT3E = target: T5, SMYD3/KMT3E (Homo sapiens, UniProt Q9H7B4); experiment: HotSpot KMT activity assay, SMYD3; details: read-out: % SMYD3 residual activity
T5 construct: the human recombinant SMYD3 (residues 2–428, C-terminus); C-terminal His-tag; His (C); purchased Reaction Biology Corporation
T5 sequence (Q9H7B4 2-428): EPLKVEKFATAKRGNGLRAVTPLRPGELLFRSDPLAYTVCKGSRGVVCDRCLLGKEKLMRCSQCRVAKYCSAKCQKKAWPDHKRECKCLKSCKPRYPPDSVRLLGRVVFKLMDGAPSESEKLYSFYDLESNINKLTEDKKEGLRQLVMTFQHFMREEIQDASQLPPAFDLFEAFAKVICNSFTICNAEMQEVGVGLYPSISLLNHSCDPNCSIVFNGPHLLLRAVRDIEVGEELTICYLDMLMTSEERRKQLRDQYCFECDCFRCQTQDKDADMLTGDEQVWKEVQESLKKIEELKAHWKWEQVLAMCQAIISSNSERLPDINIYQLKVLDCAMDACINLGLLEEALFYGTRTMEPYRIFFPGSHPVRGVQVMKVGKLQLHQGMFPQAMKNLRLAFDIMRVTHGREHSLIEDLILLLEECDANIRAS
Source text: as §1

T2 sequence (Q96KQ7 913-1193): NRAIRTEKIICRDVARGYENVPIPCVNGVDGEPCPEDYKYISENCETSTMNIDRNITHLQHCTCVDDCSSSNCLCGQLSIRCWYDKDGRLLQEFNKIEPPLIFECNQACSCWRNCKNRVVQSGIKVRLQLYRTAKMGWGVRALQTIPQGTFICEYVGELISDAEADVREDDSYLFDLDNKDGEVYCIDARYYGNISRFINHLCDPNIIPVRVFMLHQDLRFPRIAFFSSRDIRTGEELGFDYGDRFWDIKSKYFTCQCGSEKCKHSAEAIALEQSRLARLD

COC(=O)c1cc(O)c2cc(NC(=O)NCCCNC(=N)NC[C@H]3O[C@@H](n4cnc5c(N)ncnc54)[C@H](O)[C@@H]3O)cc(C(F)(F)F)c2c1 [1j, Methyl 6-(3-(3-(3-(((2R,3S,4R,5R)-5-(6-Amino-9H-purin-9-yl)-3,4-dihydroxytetrahydrofuran-2-yl)methyl)guanidino)propyl)ureido)-4-hydroxy-8-(trifluoromethyl)-2-naphthoate]
remaining activity at 10 µM (ASH1L/KMT2H; 10 μM): 95.4 ± 1.49%
remaining activity at 100 µM (ASH1L/KMT2H; 100 μM): 109 ± 3.8%
remaining activity at 10 µM (G9a/KMT1C; 10 μM): 111 ± 4.3%
remaining activity at 100 µM (G9a/KMT1C; 100 μM): 70.93 ± 0.31%
remaining activity at 10 µM ([1]; 10 μM): 90.5 ± 2.83%
remaining activity at 100 µM ([1]; 100 μM): 76.9 ± 3.96%
remaining activity at 10 µM (SET7/9/KMT7; 10 μM): 86.3 ± 1.4%
remaining activity at 100 µM (SET7/9/KMT7; 100 μM): 53.33 ± 0.38%
remaining activity at 10 µM (SMYD3/KMT3E; 10 μM): 99.1 ± 1.41%
remaining activity at 100 µM (SMYD3/KMT3E; 100 μM): 74.2 ± 1.8%
